Common to all, as to experiment: DTP human tumour cell line panel, 48 h
Assay [1] relates to SR.
Assay [2] concerns SK-OV-3.
Assay [3] has as its system HCT-15.
The subject of assay [4] is OVCAR-5.
The subject of assay [5] is CAKI-1.
Assay [6] concerns DU-145.
Assay [7] has as its system Malme-3M.
Assay [8] relates to SN12C.
Assay [9] deals with UACC-62.
Assay [10] deals with NCI-H23.
In assay [11] the test system is NCI-H226.
Assay [12] deals with SK-MEL-28.
In assay [13] the test system is SF-295.
Assay [14] concerns SF-539.
Assay [15] deals with 786-0.
Assay [16] relates to RXF 393.
Assay [17] deals with UACC-257.
The subject of assay [18] is TK-10.
The subject of assay [19] is MDA-MB-231.
In assay [20] the test system is SK-MEL-2.

SMILES strings stand for the structures.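 Each compound was tested at five concentrations against cells in 96-well plates for 48 hours. Abbreviation: GI50, concentration required for 50% inhibition of growth.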 Calls of active or inactive are those of the source. Cut-off read from the data, not from the text of the source: active = GI50 up to about 1.1 µM and inactive = higher.

With `COc1cc(C(=O)N(Cc2cccnc2)C(=S)N(Cc2cccnc2)C(=O)c2cc(OC)c(OC)c(OC)c2)cc(OC)c1OC`, the GI50 (commonly the concentration at which growth is held to half of that of the control) in [1] is 48.3 µM (inactive); in [2] it was > 100 µM (inactive); in [3], 37.7 µM; in assay [4], > 100 µM (inactive); in assay [5] it was 30.4 µM (inactive); in assay [6], 52.2 µM (inactive). The GI50 in assay [7] is 89.7 µM (inactive); in assay [8] it was 37.9 µM (inactive); in [9], 31.6 µM (inactive); in assay [10] it was 49.2 µM (inactive); in assay [11], > 100 µM (inactive); in assay [12], > 100 µM (inactive). Also, the GI50 in [13] is > 100 µM (inactive); in [14], > 100 µM (inactive); in [15], 36.2 µM (inactive); in assay [16] it was 38.4 µM (inactive); in [17], 70 µM (inactive); in assay [18] it was 89.1 µM (inactive).

Consider `CN(C)CCNc1ccc(NCC[N+](C)(C)Cc2ccc([N+](=O)[O-])cc2)c2c1C(=O)c1c(O)ccc(O)c1C2=O`, for which the GI50 in assay [3] was 6.82 µM; in assay [5], 12.2 µM (inactive); in assay [6], 30.1 µM (inactive); in assay [8], 12.2 µM (inactive); in assay [9] it was 31.6 µM (inactive); in assay [19], 43.2 µM (inactive). For the same compound, the GI50 in assay [10] is 54 µM (inactive); in assay [11] it was 15.3 µM (inactive); in assay [12] it was > 100 µM (inactive); in assay [15], 18.2 µM (inactive); in assay [20] it was > 100 µM (inactive).

Consider `CCOC(=O)c1c(N)sc2c1C(C)(C(=O)OCC)CC2` (configuration not stated), for which the GI50 in assay [1] is 92.7 µM (inactive); in assay [3], greater than 100 µM; in assay [4], > 100 µM (inactive); in assay [7], > 100 µM (inactive); in assay [8], > 100 µM (inactive); in [9], > 100 µM (inactive). Also, the GI50 in [19], in assay [10], in assay [11], in assay [12], in assay [15] and in assay [20] was > 100 µM (inactive) in each case. Moreover, the GI50 in assay [16], in assay [17] and in assay [18] was > 100 µM (inactive) throughout.

For the compound `CC(C)(C)NNC(=O)/C(=C/c1ccc([N+](=O)[O-])cc1)NC(=O)c1ccccc1`, the GI50 in assay [1] was 21.6 µM (inactive); in assay [2], > 100 µM (inactive); in assay [3], greater than 100 µM; in [4] it was > 100 µM (inactive); in assay [5] it was > 100 µM (inactive); in assay [7], > 100 µM (inactive). Moreover, the GI50 was > 100 µM (inactive) in [8]; > 100 µM (inactive) in assay [9]; > 100 µM (inactive) in assay [10]; 24.2 µM (inactive) in assay [11]; > 100 µM (inactive) in assay [12]; > 100 µM (inactive) in [13]. Moreover, the GI50 in [14] is > 100 µM (inactive); in assay [15] it was 48.5 µM (inactive); in assay [20] it was > 100 µM (inactive); in [16], > 100 µM (inactive); in assay [17] it was > 100 µM (inactive); in assay [18] it was > 100 µM (inactive).

As to `COc1ccc(/C=N/NC(=S)Nc2cc(C)ccc2OC)cc1`, the GI50 was 9.08 µM (inactive) in [1]; 51.8 µM (inactive) in [2]; 10 µM in assay [3]; 16.9 µM (inactive) in [4]; 29.7 µM (inactive) in [5]; 45 µM (inactive) in [6]. Further, the GI50 is 25.8 µM (inactive) in assay [7]; 25.1 µM (inactive) in assay [8]; 36.1 µM (inactive) in assay [9]; 29.8 µM (inactive) in assay [10]; 34.8 µM (inactive) in [12]; 37.4 µM (inactive) in assay [13]. Further, the GI50 in [14] is 24.5 µM (inactive); in [15], 22.7 µM (inactive); in assay [20], 19.8 µM (inactive); in assay [16], 33.7 µM (inactive).

With `COc1ccc(C)cc1Nc1nnc(-c2ccccc2N)s1`, the GI50 in assay [1] was 13.4 µM (inactive); in assay [2] it was > 100 µM (inactive); in assay [3], 45.2 µM; in [4], 89.9 µM (inactive); in [5], 28.4 µM (inactive); in assay [6], > 100 µM (inactive). For the same compound, the GI50 was 40.6 µM (inactive) in [7]; 32 µM (inactive) in [8]; 37.3 µM (inactive) in assay [9]; 34.3 µM (inactive) in assay [10]; 43 µM (inactive) in [11]; 53.3 µM (inactive) in [12]. In addition, the GI50 in [13] was 34 µM (inactive); in [14], 82.8 µM (inactive); in assay [15], 51.2 µM (inactive); in assay [20], 19.5 µM (inactive); in assay [16] it was 55.1 µM (inactive); in assay [17], 37.3 µM (inactive).

For the compound `Cc1c2ccccc2c(C2C3C(=O)N(c4ccc(Br)cc4)C(=O)C3ON2C(C(N)=O)c2ccccc2)c2ccccc12` (configuration not stated), the GI50 in assay [2] was 11.7 µM (inactive); in [3] it was 3.88 µM; in [4] it was 5.6 µM (inactive); in assay [5] it was 3.67 µM (inactive); in assay [6], 6.43 µM (inactive); in [7], 3.78 µM (inactive). Besides, the GI50 was 5.3 µM (inactive) in assay [8]; 9.35 µM (inactive) in [9]; 5.56 µM (inactive) in assay [10]; 5.3 µM (inactive) in assay [11]; 17.9 µM (inactive) in assay [12]; 6.59 µM (inactive) in assay [13]. In addition, the GI50 was 4.13 µM (inactive) in assay [14]; 5.5 µM (inactive) in [15]; 5.62 µM (inactive) in assay [20]; 11.7 µM (inactive) in [16]; 7.08 µM (inactive) in assay [17].

For the compound `CC1=CC[C@@]2(CO)[C@@H]([C@@H]1C)[C@H]1CC[C@@H]3[C@@]4(C)CC[C@H](O)C(C)(C)[C@@H]4CC[C@@]3(C)[C@]1(C)C[C@@H]2O`, the GI50 was 14.4 µM (inactive) in assay [2]; 46.3 µM in assay [3]; > 100 µM (inactive) in assay [4]; 19.8 µM (inactive) in assay [5]; 23 µM (inactive) in assay [6]; 20.3 µM (inactive) in [7]. For the same compound, the GI50 in assay [8] is 75.3 µM (inactive); in [9], 20.9 µM (inactive); in assay [10], 17.5 µM (inactive); in [11], 27.2 µM (inactive); in [12], 43.9 µM (inactive); in [13], 17 µM (inactive). The GI50 in assay [15] was 24.5 µM (inactive); in [16], 7.08 µM (inactive); in [17] it was 27.2 µM (inactive); in assay [18], 18.4 µM (inactive).

Turning to `CC(=O)Oc1ccccc1C(=O)C1c2cccc(O)c2C(=O)c2c(O)cccc21`, the GI50 was 0.419 µM (active) in assay [1]; 0.543 µM (active) in assay [2]; 1.08 µM in assay [3]; 2.58 µM (inactive) in assay [4]; 1.95 µM (inactive) in [5]; 1.95 µM (inactive) in assay [7]. Besides, the GI50 is 2.3 µM (inactive) in [8]; 0.794 µM (active) in assay [9]; 1.09 µM (active) in assay [10]; 1.63 µM (inactive) in assay [11]; 1.64 µM (inactive) in assay [12]; 0.682 µM (active) in assay [13]. Also, the GI50 in assay [14] was 0.46 µM (active); in [15], 1.67 µM (inactive); in assay [20], 1.19 µM (inactive); in [16] it was 0.423 µM (active); in assay [17] it was 1.62 µM (inactive); in assay [18], 3.65 µM (inactive).

Values taken from ChEMBL document CHEMBL1201862, “PubChem BioAssay data set” (2004).
